Experimental findings from patent US20050080090A1, “Naphthalene derivatives” (priority 1993, published 2005) are described below.

Structures are written as SMILES.

As usually defined, the melting point is the temperature, or range, at which the solid turns liquid.

With `CN1CCN(c2cccc3ccc(OS(=O)(=O)C(F)(F)F)cc23)CC1` [Example 55, 7-Trifluoromethylsulfonyloxy-1-(4-methyl-1-piperazinyl)-naphthalene], the melting point fell in the range of 70 to 71 °C.

As for `CCCN1CCN(c2cccc3ccc(NC(=O)c4ccc(Cl)cc4)cc23)CC1` [Example 66, 7-(4-Chlorobenzamido)-1-(4-propyl-1-piperazinyl)-naphthalene], the melting point is 130 to 132 °C.

For `CCN1CCN(c2cccc3ccc(NC(=O)c4ccc(Cl)cc4)cc23)CC1` [Example 67, 7-(4-Chlorobenzamido)-1-(4-ethyl-1-piperazinyl)-naphthalene], the melting point was in the range of 173 to 174.5 °C.

Take `CN1CCC(c2cccc3ccc(NC(=O)c4ccccc4)cc23)C1` (centres unmarked) [Example 69, 7-Benzamido-1-(1-methyl-3-pyrrolidinyl)-naphthalene]: the melting point was 137 to 145 °C.

On to `CN1CCN(c2cccc3ccc(C(=O)NCc4ccc(Cl)cc4)cc23)CC1` [Example 80, 8-(4-Methylpiperazin-1-yl)naphthalene-2-carboxylic Acid 4-chlorobenzylamide], for which the melting point lay within 72 to 74 °C.
